Laboratory results published in patent US20170065564A1, “BIS-CYCLIC GUANIDINE COMPOUND COMPOSITIONS, METHODS OF USE AND TREATMENT THEREOF” (University of South Florida, priority 2014, published 2017).

Columns and labels:
Experiment in all cases: MIC micro broth dilution assay
Assay type in all cases: cell-based
Acinetobacter baumannii = system: Acinetobacter baumannii; parameters: key to stacked score activity, 100/MIC, A: stacked score = 100/MIC; details: A. baumannii
Experimental: (§1) For this study we used a representative panel of multi-drug resistant clinical ESKAPE pathogen isolates (Supplemental Table S6).^42 43 3a, 44 45 Gram-positive organisms were grown in tryptic soy broth media (TSB), whilst Gram-negative organisms were grown in lysogeny Broth (LB), as described by us previously. ^43 MIC and MBC determination assays.
(§2) Broth cultures of ESKAPE strains were grown overnight before being diluted 1 in 1,000 in fresh media. Sterile 96-well plates were loaded with culture and compounds (in DMF) were added at decreasing concentrations to equal a total volume of 200 μl per well. Care was taken to not add more than 2.0% DMF to any well. Plates were then incubated at 37° C., and MICs determined after 24 hours by visual inspection for a lack of turbidity in wells. All assays were performed in triplicate with identical results obtained. For both the scaffold ranking and positional scanning samples, relative broad-spectrum activity was determined via stacked scores: […]

Enterobacter cloacae = system: Enterobacter cloacae; parameters: key to stacked score activity, 100/MIC, E: stacked score = 100/MIC; details: E. cloacae
Experimental: as §1, §2

Enterococcus faecium = system: Enterococcus faecium; parameters: key to stacked score activity, 100/MIC, E: stacked score = 100/MIC; details: E. faecium
Experimental: as §1, §2

Staphylococcus aureus = system: Staphylococcus aureus; parameters: key to stacked score activity, 100/MIC, S: stacked score = 100/MIC; details: S. aureus
Experimental: as §1, §2

Klebsiella pneumoniae = system: Klebsiella pneumoniae; parameters: key to stacked score activity, 100/MIC, K: stacked score = 100/MIC; details: K. pneumoniae
Experimental: as §1, §2

SMILES: N=C1NC[C@H](CCCCN2C[C@@H](Cc3cccc4ccccc34)N(CCc3ccc(-c4ccccc4)cc3)C2=N)N1CCC12CC3CC(CC(C3)C1)C2 [Compound 24]
- stacked score activity, 100/MIC, A (Acinetobacter baumannii): 0
- stacked score activity, 100/MIC, E (Enterobacter cloacae): 0
- stacked score activity, 100/MIC, E (Enterococcus faecium): 4
- stacked score activity, 100/MIC, S (Staphylococcus aureus): 10
- stacked score activity, 100/MIC, K (Klebsiella pneumoniae): 0

SMILES: CCCCCCCN1C(=N)NC[C@@H]1CCCCN1CCNC1=N [Compound 28]
- stacked score activity, 100/MIC, A (Acinetobacter baumannii): 0
- stacked score activity, 100/MIC, E (Enterobacter cloacae): 0
- stacked score activity, 100/MIC, E (Enterococcus faecium): 0
- stacked score activity, 100/MIC, S (Staphylococcus aureus): 0
- stacked score activity, 100/MIC, K (Klebsiella pneumoniae): 0

SMILES: CCCCCCCN1C(=N)NC[C@@H]1CCCCN1CCN(CCc2cccc(C)c2)C1=N [Compound 29]
- stacked score activity, 100/MIC, A (Acinetobacter baumannii): 0
- stacked score activity, 100/MIC, E (Enterobacter cloacae): 0
- stacked score activity, 100/MIC, E (Enterococcus faecium): 0
- stacked score activity, 100/MIC, S (Staphylococcus aureus): 4
- stacked score activity, 100/MIC, K (Klebsiella pneumoniae): 0

SMILES: CCCCCCCN1C(=N)NC[C@@H]1CCCCN1CCN(CC(C)CC)C1=N (some centres unmarked) [Compound 30]
- stacked score activity, 100/MIC, A (Acinetobacter baumannii): 0
- stacked score activity, 100/MIC, E (Enterobacter cloacae): 0
- stacked score activity, 100/MIC, E (Enterococcus faecium): 0
- stacked score activity, 100/MIC, S (Staphylococcus aureus): 0
- stacked score activity, 100/MIC, K (Klebsiella pneumoniae): 0

SMILES: CCCCCCCN1C(=N)NC[C@@H]1CCCCN1C[C@H](C(C)CC)NC1=N (some centres unmarked) [Compound 31]
- stacked score activity, 100/MIC, A (Acinetobacter baumannii): 0
- stacked score activity, 100/MIC, E (Enterobacter cloacae): 0
- stacked score activity, 100/MIC, E (Enterococcus faecium): 0
- stacked score activity, 100/MIC, S (Staphylococcus aureus): 4
- stacked score activity, 100/MIC, K (Klebsiella pneumoniae): 0

SMILES: CCCCCCCN1C(=N)NC[C@@H]1CCCCN1C[C@H](C(C)CC)N(CC(C)CC)C1=N (some centres unmarked) [Compound 33]
- stacked score activity, 100/MIC, A (Acinetobacter baumannii): 0
- stacked score activity, 100/MIC, E (Enterobacter cloacae): 0
- stacked score activity, 100/MIC, E (Enterococcus faecium): 0
- stacked score activity, 100/MIC, S (Staphylococcus aureus): 4
- stacked score activity, 100/MIC, K (Klebsiella pneumoniae): 0

SMILES: CCCCCCCN1C(=N)NC[C@@H]1CCCCN1C[C@@H](CCC)NC1=N [Compound 34]
- stacked score activity, 100/MIC, A (Acinetobacter baumannii): 0
- stacked score activity, 100/MIC, E (Enterobacter cloacae): 0
- stacked score activity, 100/MIC, E (Enterococcus faecium): 0
- stacked score activity, 100/MIC, S (Staphylococcus aureus): 4
- stacked score activity, 100/MIC, K (Klebsiella pneumoniae): 0

SMILES: CCCCCCCN1C(=N)NC[C@@H]1CCCCN1C[C@@H](CCC)N(CC(C)CC)C1=N (some centres unmarked) [Compound 36]
- stacked score activity, 100/MIC, A (Acinetobacter baumannii): 0
- stacked score activity, 100/MIC, E (Enterobacter cloacae): 0
- stacked score activity, 100/MIC, E (Enterococcus faecium): 0
- stacked score activity, 100/MIC, S (Staphylococcus aureus): 4
- stacked score activity, 100/MIC, K (Klebsiella pneumoniae): 0

SMILES: N=C1NCCN1CCCC[C@H]1CNC(=N)N1CC1CCCCC1 [Compound 37]
- stacked score activity, 100/MIC, A (Acinetobacter baumannii): 0
- stacked score activity, 100/MIC, E (Enterobacter cloacae): 0
- stacked score activity, 100/MIC, E (Enterococcus faecium): 0
- stacked score activity, 100/MIC, S (Staphylococcus aureus): 0
- stacked score activity, 100/MIC, K (Klebsiella pneumoniae): 0

SMILES: Cc1cccc(CCN2CCN(CCCC[C@H]3CNC(=N)N3CC3CCCCC3)C2=N)c1 [Compound 38]
- stacked score activity, 100/MIC, A (Acinetobacter baumannii): 0
- stacked score activity, 100/MIC, E (Enterobacter cloacae): 0
- stacked score activity, 100/MIC, E (Enterococcus faecium): 0
- stacked score activity, 100/MIC, S (Staphylococcus aureus): 4
- stacked score activity, 100/MIC, K (Klebsiella pneumoniae): 0

SMILES: CCC(C)CN1CCN(CCCC[C@H]2CNC(=N)N2CC2CCCCC2)C1=N (some centres unmarked) [Compound 39]
- stacked score activity, 100/MIC, A (Acinetobacter baumannii): 0
- stacked score activity, 100/MIC, E (Enterobacter cloacae): 0
- stacked score activity, 100/MIC, E (Enterococcus faecium): 0
- stacked score activity, 100/MIC, S (Staphylococcus aureus): 0
- stacked score activity, 100/MIC, K (Klebsiella pneumoniae): 0

SMILES: CCC(C)[C@H]1CN(CCCC[C@H]2CNC(=N)N2CC2CCCCC2)C(=N)N1 (some centres unmarked) [Compound 40]
- stacked score activity, 100/MIC, A (Acinetobacter baumannii): 0
- stacked score activity, 100/MIC, E (Enterobacter cloacae): 0
- stacked score activity, 100/MIC, E (Enterococcus faecium): 0
- stacked score activity, 100/MIC, S (Staphylococcus aureus): 0
- stacked score activity, 100/MIC, K (Klebsiella pneumoniae): 0

SMILES: CCC(C)[C@H]1CN(CCCC[C@H]2CNC(=N)N2CC2CCCCC2)C(=N)N1CCc1cccc(C)c1 (some centres unmarked) [Compound 41]
- stacked score activity, 100/MIC, A (Acinetobacter baumannii): 0
- stacked score activity, 100/MIC, E (Enterobacter cloacae): 0
- stacked score activity, 100/MIC, E (Enterococcus faecium): 0
- stacked score activity, 100/MIC, S (Staphylococcus aureus): 4
- stacked score activity, 100/MIC, K (Klebsiella pneumoniae): 0

SMILES: CCC(C)CN1C(=N)N(CCCC[C@H]2CNC(=N)N2CC2CCCCC2)C[C@@H]1C(C)CC (some centres unmarked) [Compound 42]
- stacked score activity, 100/MIC, A (Acinetobacter baumannii): 0
- stacked score activity, 100/MIC, E (Enterobacter cloacae): 0
- stacked score activity, 100/MIC, E (Enterococcus faecium): 0
- stacked score activity, 100/MIC, S (Staphylococcus aureus): 4
- stacked score activity, 100/MIC, K (Klebsiella pneumoniae): 0

SMILES: CCC[C@@H]1CN(CCCC[C@H]2CNC(=N)N2CC2CCCCC2)C(=N)N1 [Compound 43]
- stacked score activity, 100/MIC, A (Acinetobacter baumannii): 0
- stacked score activity, 100/MIC, E (Enterobacter cloacae): 0
- stacked score activity, 100/MIC, E (Enterococcus faecium): 0
- stacked score activity, 100/MIC, S (Staphylococcus aureus): 0
- stacked score activity, 100/MIC, K (Klebsiella pneumoniae): 0

SMILES: CCC[C@@H]1CN(CCCC[C@H]2CNC(=N)N2CC2CCCCC2)C(=N)N1CCc1cccc(C)c1 [Compound 44]
- stacked score activity, 100/MIC, A (Acinetobacter baumannii): 0
- stacked score activity, 100/MIC, E (Enterobacter cloacae): 0
- stacked score activity, 100/MIC, E (Enterococcus faecium): 0
- stacked score activity, 100/MIC, S (Staphylococcus aureus): 4
- stacked score activity, 100/MIC, K (Klebsiella pneumoniae): 0

SMILES: CCC[C@@H]1CN(CCCC[C@H]2CNC(=N)N2CC2CCCCC2)C(=N)N1CC(C)CC (some centres unmarked) [Compound 45]
- stacked score activity, 100/MIC, A (Acinetobacter baumannii): 0
- stacked score activity, 100/MIC, E (Enterobacter cloacae): 0
- stacked score activity, 100/MIC, E (Enterococcus faecium): 0
- stacked score activity, 100/MIC, S (Staphylococcus aureus): 4
- stacked score activity, 100/MIC, K (Klebsiella pneumoniae): 0

SMILES: CC1CCC(CN2C(=N)NC[C@@H]2CCCCN2CCNC2=N)CC1 (some centres unmarked) [Compound 46]
- stacked score activity, 100/MIC, A (Acinetobacter baumannii): 0
- stacked score activity, 100/MIC, E (Enterobacter cloacae): 0
- stacked score activity, 100/MIC, E (Enterococcus faecium): 0
- stacked score activity, 100/MIC, S (Staphylococcus aureus): 0
- stacked score activity, 100/MIC, K (Klebsiella pneumoniae): 0

SMILES: Cc1cccc(CCN2CCN(CCCC[C@H]3CNC(=N)N3CC3CCC(C)CC3)C2=N)c1 (some centres unmarked) [Compound 47]
- stacked score activity, 100/MIC, A (Acinetobacter baumannii): 0
- stacked score activity, 100/MIC, E (Enterobacter cloacae): 0
- stacked score activity, 100/MIC, E (Enterococcus faecium): 0
- stacked score activity, 100/MIC, S (Staphylococcus aureus): 4
- stacked score activity, 100/MIC, K (Klebsiella pneumoniae): 0

SMILES: CCC(C)CN1CCN(CCCC[C@H]2CNC(=N)N2CC2CCC(C)CC2)C1=N (some centres unmarked) [Compound 48]
- stacked score activity, 100/MIC, A (Acinetobacter baumannii): 0
- stacked score activity, 100/MIC, E (Enterobacter cloacae): 0
- stacked score activity, 100/MIC, E (Enterococcus faecium): 0
- stacked score activity, 100/MIC, S (Staphylococcus aureus): 0
- stacked score activity, 100/MIC, K (Klebsiella pneumoniae): 0

SMILES: CCC(C)[C@H]1CN(CCCC[C@H]2CNC(=N)N2CC2CCC(C)CC2)C(=N)N1 (some centres unmarked) [Compound 49]
- stacked score activity, 100/MIC, A (Acinetobacter baumannii): 0
- stacked score activity, 100/MIC, E (Enterobacter cloacae): 0
- stacked score activity, 100/MIC, E (Enterococcus faecium): 0
- stacked score activity, 100/MIC, S (Staphylococcus aureus): 4
- stacked score activity, 100/MIC, K (Klebsiella pneumoniae): 0

SMILES: CCC(C)CN1C(=N)N(CCCC[C@H]2CNC(=N)N2CC2CCC(C)CC2)C[C@@H]1C(C)CC (some centres unmarked) [Compound 51]
- stacked score activity, 100/MIC, A (Acinetobacter baumannii): 0
- stacked score activity, 100/MIC, E (Enterobacter cloacae): 0
- stacked score activity, 100/MIC, E (Enterococcus faecium): 0
- stacked score activity, 100/MIC, S (Staphylococcus aureus): 4
- stacked score activity, 100/MIC, K (Klebsiella pneumoniae): 0

SMILES: CCC[C@@H]1CN(CCCC[C@H]2CNC(=N)N2CC2CCC(C)CC2)C(=N)N1 (some centres unmarked) [Compound 52]
- stacked score activity, 100/MIC, A (Acinetobacter baumannii): 0
- stacked score activity, 100/MIC, E (Enterobacter cloacae): 0
- stacked score activity, 100/MIC, E (Enterococcus faecium): 0
- stacked score activity, 100/MIC, S (Staphylococcus aureus): 4
- stacked score activity, 100/MIC, K (Klebsiella pneumoniae): 0

SMILES: CCC[C@@H]1CN(CCCC[C@H]2CNC(=N)N2CC2CCC(C)CC2)C(=N)N1CCc1cccc(C)c1 (some centres unmarked) [Compound 53]
- stacked score activity, 100/MIC, A (Acinetobacter baumannii): 0
- stacked score activity, 100/MIC, E (Enterobacter cloacae): 0
- stacked score activity, 100/MIC, E (Enterococcus faecium): 0
- stacked score activity, 100/MIC, S (Staphylococcus aureus): 4
- stacked score activity, 100/MIC, K (Klebsiella pneumoniae): 0

SMILES: CCC[C@@H]1CN(CCCC[C@H]2CNC(=N)N2CC2CCC(C)CC2)C(=N)N1CC(C)CC (some centres unmarked) [Compound 54]
- stacked score activity, 100/MIC, A (Acinetobacter baumannii): 0
- stacked score activity, 100/MIC, E (Enterobacter cloacae): 0
- stacked score activity, 100/MIC, E (Enterococcus faecium): 0
- stacked score activity, 100/MIC, S (Staphylococcus aureus): 4
- stacked score activity, 100/MIC, K (Klebsiella pneumoniae): 0
